Assay results reported in the supplement of paper PMC13207355.

What was measured:
Conditions in all cases: exposure time: 72 h
[1] = tested on: E28 (patient-derived glioblastoma stem cells of classical subtype); assay: surviving fraction (nuclei count normalised to DMSO); higher = more cells surviving (less toxic)
[2] = tested on: E31 (patient-derived glioblastoma stem cells of proneural subtype); assay: as above
[3] = tested on: E13 (patient-derived glioblastoma stem cells of classical subtype); assay: as above
[4] = tested on: E21 (patient-derived glioblastoma stem cells of mesenchymal subtype); assay: as above
[5] = tested on: FT3469 (normal neural stem cell line); assay: as above
[6] = tested on: E57 (patient-derived glioblastoma stem cells of mesenchymal subtype); assay: as above
[7] = tested on: E34 (patient-derived glioblastoma stem cells of proneural subtype); assay: as above
[8] = tested on: E28; assay: phenotypic distance (Euclidean, principal components) from DMSO controls (arbitrary units); higher = stronger morphological change
[9] = tested on: E31; assay: as above
[10] = tested on: E13; assay: as above
[11] = tested on: E21; assay: as above
[12] = tested on: FT3469; assay: as above
[13] = tested on: E57; assay: as above
[14] = tested on: E34; assay: as above
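Throughout, for phenotypic distance (Euclidean, principal components) from DMSO controls: cell Painting imaging in 384-well plates, CellProfiler features reduced to at least 20 principal components, Euclidean distance versus same-plate DMSO vehicle wells (0.1% v/v), median over six images per well.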
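Throughout, for surviving fraction (nuclei count normalised to DMSO): nuclei counted by high-content imaging of Hoechst-stained cells in laminin-coated 384-well plates, relative to 0.1% DMSO vehicle wells, with staurosporine as cell-death control.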

Nc1ccn([C@@H]2O[C@H](CO)[C@@H](O)[C@@H]2O)c(=O)n1 [Cytarabine]
Conditions | phenotypic distance | surviving fraction
[1], 4.1 nM | – | 0.778
[1], 12.3 nM | – | 0.775
[1], 37 nM | – | 0.542
[1], 111.1 nM | – | 0.586
[1], 333.3 nM | – | 0.474
[1], 1000 nM | – | 0.511
[1], 3000 nM | – | 0.333
[2], 4.1 nM | – | 0.861
[2], 12.3 nM | – | 0.637
[2], 37 nM | – | 0.463
[2], 111.1 nM | – | 0.312
[2], 333.3 nM | – | 0.149
[2], 1000 nM | – | 0.127
[2], 3000 nM | – | 0.126
[3], 4.1 nM | – | 0.893
[3], 12.3 nM | – | 0.843
[3], 37 nM | – | 0.673
[3], 111.1 nM | – | 0.645
[3], 333.3 nM | – | 0.42
[3], 1000 nM | – | 0.448
[3], 3000 nM | – | 0.389
[4], 4.1 nM | – | 0.787
[4], 12.3 nM | – | 0.77
[4], 37 nM | – | 0.649
[4], 111.1 nM | – | 0.533
[4], 333.3 nM | – | 0.339
[4], 1000 nM | – | 0.236
[4], 3000 nM | – | 0.154
[5], 4.1 nM | – | 0.758
[5], 12.3 nM | – | 0.684
[5], 37 nM | – | 0.654
[5], 111.1 nM | – | 0.753
[5], 333.3 nM | – | 0.684
[5], 1000 nM | – | 0.553
[5], 3000 nM | – | 0.62
[6], 4.1 nM | – | 0.687
[6], 12.3 nM | – | 0.62
[6], 37 nM | – | 0.443
[6], 111.1 nM | – | 0.316
[6], 333.3 nM | – | 0.179
[6], 1000 nM | – | 0.179
[6], 3000 nM | – | 0.161
[7], 4.1 nM | – | 0.892
[7], 12.3 nM | – | 0.803
[7], 37 nM | – | 0.723
[7], 111.1 nM | – | 0.687
[7], 333.3 nM | – | 0.555
[7], 1000 nM | – | 0.514
[7], 3000 nM | – | 0.466
[8], 4.1 nM | 1.71 | –
[8], 12.3 nM | 1.24 | –
[8], 37 nM | 1.72 | –
[8], 111.1 nM | 2.6 | –
[8], 333.3 nM | 2.45 | –
[8], 1000 nM | 2.47 | –
[8], 3000 nM | 3.27 | –
[9], 4.1 nM | 1.02 | –
[9], 12.3 nM | 1.8 | –
[9], 37 nM | 1.75 | –
[9], 111.1 nM | 3.19 | –
[9], 333.3 nM | 3.48 | –
[9], 1000 nM | 3.7 | –
[9], 3000 nM | 4.49 | –
[10], 4.1 nM | 0.95 | –
[10], 12.3 nM | 1.36 | –
[10], 37 nM | 1.77 | –
[10], 111.1 nM | 2.69 | –
[10], 333.3 nM | 4.49 | –
[10], 1000 nM | 4.63 | –
[10], 3000 nM | 4.85 | –
[11], 4.1 nM | 1.63 | –
[11], 12.3 nM | 2.01 | –
[11], 37 nM | 2.73 | –
[11], 111.1 nM | 3.44 | –
[11], 333.3 nM | 4.54 | –
[11], 1000 nM | 4.75 | –
[11], 3000 nM | 5.65 | –
[12], 4.1 nM | 1.13 | –
[12], 12.3 nM | 1.74 | –
[12], 37 nM | 1.5 | –
[12], 111.1 nM | 1.8 | –
[12], 333.3 nM | 2.13 | –
[12], 1000 nM | 1.94 | –
[12], 3000 nM | 1.69 | –
[13], 4.1 nM | 2.41 | –
[13], 12.3 nM | 3.28 | –
[13], 37 nM | 4.72 | –
[13], 111.1 nM | 6.26 | –
[13], 333.3 nM | 7.13 | –
[13], 1000 nM | 6.77 | –
[13], 3000 nM | 6.62 | –
[14], 4.1 nM | 1.44 | –
[14], 12.3 nM | 1.82 | –
[14], 37 nM | 2.13 | –
[14], 111.1 nM | 3.16 | –
[14], 333.3 nM | 3.2 | –
[14], 1000 nM | 3.33 | –
[14], 3000 nM | 3.62 | –
